Experimental findings from PMC3873281, “Discovery and Preclinical Characterization of Novel Small Molecule TRK and ROS1 Tyrosine Kinase Inhibitors for the Treatment of Cancer and Inflammation” (PLoS ONE, 2013) are described below.

The subject of data set [1] is FIG-ROS1. Briefly: Phosphorylation of ROS1 fused to FIG in NIH3T3 cells, Western blotting. The class given is cell-based. As to conditions: 3 days. The method, then:
(§1) Protein was extracted and immunoblotted with phospho-ROS1 and total ROS1 antibodies. C. […] Ba/F3 cells stably transfected with vector or FIG-ROS1 were plated in equal numbers and growth of the cells after 3 days was measured by SRB assay (F).
Background: A western blot detects proteins with antibodies after separation by electrophoresis.

Data set [2] relates to NIH3T3:FIG-ROS1 (S) cells. Kind of data set: NIH3T3:FIG-ROS1 (S) cell proliferation, SRB assay. In kind it is cell-based. The method, then:
(§2) Adherent cells were plated at 10,000 cells per well in 96-well plates in respective medium. […] For cell cycle analysis, cells were plated in 6 well plates and treated for the indicated time points. Cells were fixed, stained with propidium iodide, and distribution in different phases of cell cycle was evaluated using flow cytometry.
as §1

For data set [3], the system named is NIH3T3:FIG-ROS1 (S) xenograft. The method, then: Xenograft experiments were performed in nude mice as previously described. Briefly, a mixture of cells suspended in 0.0375 mL RPMI+10% FBS and 0.0625 mL Matrigel was injected s.c. into the hind left flank of each mouse.
Tumor volumes (A) and body weight (C) were measured biweekly. After sacrifice, tumor weights (B) were recorded and the amount of drug in serum and tumors were quantified using LC-MS/MS (D). *-significant at p<0.01; **-significant at p<0.001.

Data set [4] has as its system HCC78 cells. Kind of data set: Cell cycle analysis of HCC78 cells, flow cytometry. The class given is cell-based. As to conditions: 1 µM. As for the experimental part: as §2, §1
A general note: Flow cytometry measures light scatter and fluorescence of single cells or particles in a stream.

Data set [5] relates to HCC78 lung cancer cells. Briefly: HCC78 lung carcinoma cell growth, SRB assay. The class given is cell-based. Particulars: Homo sapiens, HCC78, 144 h, read-out: IC50, proliferation of HCC78 cells. The method, then: as §2, §1
A general note: Sulforhodamine B stains cellular protein and so reports cell mass.

Data set [6] concerns croton oil-induced dermatitis. Kind of data set: Croton oil-induced atopic dermatitis. Particulars: s.c., twice, 16 hrs and 2 hrs before croton oil.
The test system of data set [7] is MMP-3. Kind of data set: PMA- or NGF-induced MMP-3 expression in PC12 cells, realtime PCR. The class given is cell-based. The method, then:
RNA was isolated using the Cells-to-Ct kit and realtime PCR was performed using TaqMan primers and probes on the ABI 7900 (Life Technologies). cDNA array experiments were conducted using TaqMan primers and probes on the ABI 7900 PCR machine.
Figure 3 GTx-186 inhibits inflammation in vitro. Cells were serum starved for 2 days, pre-treated with indicated concentrations of GTx-186 for 30 min and treated with growth factors or cytokines for 12–16 hrs. RNA was extracted, cDNA synthesized, and expression of inflammatory genes were measured by realtime PCR using Taqman primer and probes. All experiments were performed in triplicate and repeated at least three times.

For data set [8], the system named is carrageenan-induced air-pouch inflammation. Briefly: Carrageenan-induced air pouch inflammation model. In kind it is in vivo, Sprague Dawley rats. Particulars: GTx-186 40 mg/kg; indomethacin 30 mg/kg s.c. The method, then: Cytokine arrays were obtained from Ray Biotech (Norcross, GA) and arrays were processed according to manufacturer’s instructions. Briefly, arrays were incubated overnight with equal volume of air pouch exudates, washed, and incubated with secondary antibodies before developing using enhanced chemiluminescence.
Air was injected in the flanks of Sprague Dawley rats four days (20 mL) and two days (10 mL) before injection of carrageenan (1 mL of 2% carrageenan) in the pouch. Six hours after carrageenan administration, animals were sacrificed, 5 mL saline was injected into the pouch, pouch exudates were collected and the number of leukocytes and macrophages infiltrated into the pouch were counted under a microscope.
Figure 5 GTx-186 inhibits carrageenan-induced air-pouch inflammation in rats. A–C. A pouch was created subcutaneously in one flank of rats (n = 3) by injecting 20 ml air four days before and 10 ml air two days before treatment. […] Six hours after carrageenan administration, the animals were sacrificed, 5 ml saline was injected into pouch to flush the pouch fluid and the number of leukocytes and macrophages infiltrated into the pouch were counted under a microscope. TNF-α was measured using an ELISA in the pouch exudates from the experiment in panel B. (C). D. Effect of GTx-186 on inflammatory cytokines in carrageenan-induced air-pouch inflammation was measured in the pouch exudates using a cytokine array. Key cytokines were quantified and expressed as bar graphs on the right. […] 186-GTx-186; Indom-Indomethacin; Dex-Dexamethasone; TNF-Tumor Necrosis Factor; IL-Interleukin; CINC-Cytokine-Induced Neutrophil-Chemoattractant protein.

[9] abbreviates: daily, GTx-186 20 mg/kg/day i.v., crizotinib 75 mg/kg p.o.

Like-named read-outs stand apart in the source and are kept apart here.

`C[C@@H](Oc1cc(-c2cnn(C3CCNCC3)c2)cnc1N)c1c(Cl)ccc(F)c1Cl` [crizotinib]: in data set [1], the “phosphorylation of ROS1 fused to FIG” value is “extremely effective in inhibiting”. Besides, the IC50 came out at 24 nM in data set [2] (72 h, read-out: IC50, proliferation of NIH3T3:FIG-ROS1 (S), 3 days); 26 nM in data set [2] (read-out: IC50, proliferation of NIH3T3:FIG-ROS1 (S), 3 days); 495 nM in data set [5]. In data set [3] (crizotinib 75 mg/kg p.o. daily), this compound had a tumor growth inhibition of 90%. Also, the “tumor growth (tumor volume)” value in data set [3] (setting [9]) was “significantly reduced”. For the same compound, in data set [3] (setting [9]), the tumor weight entry is recorded as “significantly reduced”. Also, in data set [3] (mouse, in vivo), the “body weight, visible toxicity” value is “without affecting body weight”. For the same compound, the “time of treatment at which cells were arrested in G0/G1 phase” value in data set [4] turned out to be 6 days.

For `C[C@@H]1C[C@H]2[C@@H]3CCC4=CC(=O)C=C[C@]4(C)[C@@]3(F)[C@@H](O)C[C@]2(C)[C@@]1(O)C(=O)CO` [dexamethasone], the “expression of inflammatory pathway genes, including NGF, in ear punches” value in data set [6] is on record as “markedly inhibited”. In data set [7], the “MMP-3 expression induced by PMA” value was “inhibited”.

For `COc1ccc2c(c1)c(CC(=O)O)c(C)n2C(=O)c1ccc(Cl)cc1` [indomethacin], in data set [8], the “TNF-α levels in pouch exudates after carrageenan (ELISA, cytokine array)” value is reported as “effectively inhibited”; the “carrageenan-induced CINC-1, CINC-2, IL-6, and LIX in pouch exudates (cytokine array)” value was “only GTx-186 inhibited”; the “carrageenan-induced CINC-3, TIMP-1, PDGFa, MMP-8, and MCP-1 in pouch exudates (cytokine array)” value is “neither GTx-186 nor indomethacin inhibited”; the “carrageenan-induced TNF-α, IL-1β, fractalkine, IL-13, and leptin in pouch exudates (cytokine array)” value is listed as “inhibited”.
